This note sets out measurements from ChEMBL document CHEMBL3860039, “Structure-Activity Relationship and Signaling of New Chimeric CXCR4 Agonists” (J Med Chem, 2016).

The IC50 is the concentration that inhibits the measured activity by half.

Structures are written as SMILES.

Sequence of C-X-C chemokine receptor type 4 (P61073 whole entry): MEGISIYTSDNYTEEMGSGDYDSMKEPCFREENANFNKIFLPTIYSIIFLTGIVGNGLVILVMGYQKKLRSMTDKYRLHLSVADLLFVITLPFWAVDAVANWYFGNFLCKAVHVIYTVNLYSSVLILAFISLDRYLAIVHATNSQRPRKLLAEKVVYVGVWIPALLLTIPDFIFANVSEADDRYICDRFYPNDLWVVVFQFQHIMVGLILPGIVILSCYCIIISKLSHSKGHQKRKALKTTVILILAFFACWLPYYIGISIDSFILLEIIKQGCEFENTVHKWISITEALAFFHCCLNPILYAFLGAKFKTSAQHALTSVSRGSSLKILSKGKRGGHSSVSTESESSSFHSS

One experiment has as its target C-X-C chemokine receptor type 4 (Homo sapiens, UniProt P61073). In words: Displacement of [125I]-CXCL12 from HA-tagged human recombinant CXCR4 expressed in HEK293 cells incubated for 1 hr by gamma-radiation counting analysis. The experiment is classed as cell-based.
Conditions: not given
In general terms: Loss of bound radioactivity is the signal in a displacement assay; it reports binding, not function.
For `CC(C)[C@H](NC(=O)[C@@H]1CCCN1C(=O)[C@@H](N)CCCCN)C(=O)N[C@@H](CO)C(=O)N[C@@H](C)C(=O)N[C@@H](CO)C(=O)N[C@@H](Cc1ccc(O)cc1)C(=O)N[C@@H](CCCNC(=N)N)C(=O)N[C@@H](CO)C(=O)N[C@@H](C)C(=O)NCCCC[C@H](NC(=O)[C@@H]1CSSC[C@H](NC(=O)[C@H](Cc2ccc3ccccc3c2)NC(=O)[C@H](CCCNC(=N)N)NC(=O)[C@@H](N)CCCNC(=N)N)C(=O)N[C@@H](Cc2ccc(O)cc2)C(=O)N[C@@H](CCCNC(=N)N)C(=O)N[C@@H](CCCCN)C(=O)N[C@H](CCCCN)C(=O)N2CCC[C@H]2C(=O)N[C@@H](Cc2ccc(O)cc2)C(=O)N[C@@H](CCCNC(=N)N)C(=O)N[C@@H](CCCNC(=N)N)C(=O)N1)C(=O)O`, the IC50 came out at 171 nM. Still for that read-out and setting: in the case of `CC(C)C[C@H](NC(=O)[C@H](CO)NC(=O)[C@@H](N)C(C)C)C(=O)N[C@@H](CO)C(=O)N[C@@H](Cc1ccc(O)cc1)C(=O)N[C@@H](CCCNC(=N)N)C(=O)N[C@@H](CO)C(=O)N[C@@H](C)C(=O)NCCCC[C@H](NC(=O)[C@@H]1CSSC[C@H](NC(=O)[C@H](Cc2ccc3ccccc3c2)NC(=O)[C@H](CCCNC(=N)N)NC(=O)[C@@H](N)CCCNC(=N)N)C(=O)N[C@@H](Cc2ccc(O)cc2)C(=O)N[C@@H](CCCNC(=N)N)C(=O)N[C@@H](CCCCN)C(=O)N[C@H](CCCCN)C(=O)N2CCC[C@H]2C(=O)N[C@@H](Cc2ccc(O)cc2)C(=O)N[C@@H](CCCNC(=N)N)C(=O)N[C@@H](CCCNC(=N)N)C(=O)N1)C(=O)O` it was 95 nM; in that of `CC(C)C[C@H](NC(=O)[C@H](CO)NC(=O)[C@@H](NC(=O)[C@@H]1CCCN1C(=O)[C@@H](N)CCCCN)C(C)C)C(=O)N[C@@H](CO)C(=O)N[C@@H](C)C(=O)N[C@@H](CCCNC(=N)N)C(=O)N[C@@H](CO)C(=O)N[C@@H](C)C(=O)NCCCC[C@H](NC(=O)[C@@H]1CSSC[C@H](NC(=O)[C@H](Cc2ccc3ccccc3c2)NC(=O)[C@H](CCCNC(=N)N)NC(=O)[C@@H](N)CCCNC(=N)N)C(=O)N[C@@H](Cc2ccc(O)cc2)C(=O)N[C@@H](CCCNC(=N)N)C(=O)N[C@@H](CCCCN)C(=O)N[C@H](CCCCN)C(=O)N2CCC[C@H]2C(=O)N[C@@H](Cc2ccc(O)cc2)C(=O)N[C@@H](CCCNC(=N)N)C(=O)N[C@@H](CCCNC(=N)N)C(=O)N1)C(=O)O`, 230 nM.

Take `CC(C)C[C@H](NC(=O)[C@H](CO)NC(=O)[C@@H](NC(=O)C1(NC(=O)[C@@H](N)CCCCN)Cc2ccccc2C1)C(C)C)C(=O)N[C@@H](CO)C(=O)N[C@@H](Cc1ccc(O)cc1)C(=O)N[C@@H](CCCNC(=N)N)C(=O)N[C@@H](CO)C(=O)N[C@@H](C)C(=O)NCCCC[C@H](NC(=O)[C@@H]1CSSC[C@H](NC(=O)[C@H](Cc2ccc3ccccc3c2)NC(=O)[C@H](CCCNC(=N)N)NC(=O)[C@@H](N)CCCNC(=N)N)C(=O)N[C@@H](Cc2ccc(O)cc2)C(=O)N[C@@H](CCCNC(=N)N)C(=O)N[C@@H](CCCCN)C(=O)N[C@H](CCCCN)C(=O)N2CCC[C@H]2C(=O)N[C@@H](Cc2ccc(O)cc2)C(=O)N[C@@H](CCCNC(=N)N)C(=O)N[C@@H](CCCNC(=N)N)C(=O)N1)C(=O)O`: the IC50 was 137 nM. The same measure, in the same setting: in the case of `CC(C)C[C@H](NC(=O)[C@H](CO)NC(=O)[C@H](Cc1ccccc1)N(C)C(=O)[C@@H]1CCCN1C(=O)[C@@H](N)CCCCN)C(=O)N[C@@H](CO)C(=O)N[C@@H](Cc1ccc(O)cc1)C(=O)N[C@@H](CCCNC(=N)N)C(=O)N[C@@H](CO)C(=O)N[C@@H](C)C(=O)NCCCC[C@H](NC(=O)[C@@H]1CSSC[C@H](NC(=O)[C@H](Cc2ccc3ccccc3c2)NC(=O)[C@H](CCCNC(=N)N)NC(=O)[C@@H](N)CCCNC(=N)N)C(=O)N[C@@H](Cc2ccc(O)cc2)C(=O)N[C@@H](CCCNC(=N)N)C(=O)N[C@@H](CCCCN)C(=O)N[C@H](CCCCN)C(=O)N2CCC[C@H]2C(=O)N[C@@H](Cc2ccc(O)cc2)C(=O)N[C@@H](CCCNC(=N)N)C(=O)N[C@@H](CCCNC(=N)N)C(=O)N1)C(=O)O` it was 678 nM; in that of `CC(C)C[C@H](NC(=O)[C@H](CO)NC(=O)[C@@H](NC(=O)[C@@H]1CCCN1)C(C)C)C(=O)N[C@@H](CO)C(=O)N[C@@H](Cc1ccc(O)cc1)C(=O)N[C@@H](CCCNC(=N)N)C(=O)N[C@@H](CO)C(=O)N[C@@H](C)C(=O)NCCCC[C@H](NC(=O)[C@@H]1CSSC[C@H](NC(=O)[C@H](Cc2ccc3ccccc3c2)NC(=O)[C@H](CCCNC(=N)N)NC(=O)[C@@H](N)CCCNC(=N)N)C(=O)N[C@@H](Cc2ccc(O)cc2)C(=O)N[C@@H](CCCNC(=N)N)C(=O)N[C@@H](CCCCN)C(=O)N[C@H](CCCCN)C(=O)N2CCC[C@H]2C(=O)N[C@@H](Cc2ccc(O)cc2)C(=O)N[C@@H](CCCNC(=N)N)C(=O)N[C@@H](CCCNC(=N)N)C(=O)N1)C(=O)O`, 548 nM.

As for `CC(C)C[C@H](NC(=O)[C@H](CO)NC(=O)[C@H](C(C)C)N(C)C(=O)[C@@H]1CCCN1C(=O)[C@@H](N)CCCCN)C(=O)N[C@@H](CO)C(=O)N[C@@H](Cc1ccc(O)cc1)C(=O)N[C@@H](CCCNC(=N)N)C(=O)N[C@@H](CO)C(=O)N[C@@H](C)C(=O)NCCCC[C@H](NC(=O)[C@@H]1CSSC[C@H](NC(=O)[C@H](Cc2ccc3ccccc3c2)NC(=O)[C@H](CCCNC(=N)N)NC(=O)[C@@H](N)CCCNC(=N)N)C(=O)N[C@@H](Cc2ccc(O)cc2)C(=O)N[C@@H](CCCNC(=N)N)C(=O)N[C@@H](CCCCN)C(=O)N[C@H](CCCCN)C(=O)N2CCC[C@H]2C(=O)N[C@@H](Cc2ccc(O)cc2)C(=O)N[C@@H](CCCNC(=N)N)C(=O)N[C@@H](CCCNC(=N)N)C(=O)N1)C(=O)O`, the IC50 was determined as 127 nM. The same measure, in the same setting: for `CC(C)C[C@H](NC(=O)[C@H](CO)NC(=O)[C@@H](NC(=O)[C@H](C)NC(=O)[C@@H](N)CCCCN)C(C)C)C(=O)N[C@@H](CO)C(=O)N[C@@H](Cc1ccc(O)cc1)C(=O)N[C@@H](CCCNC(=N)N)C(=O)N[C@@H](CO)C(=O)N[C@@H](C)C(=O)NCCCC[C@H](NC(=O)[C@@H]1CSSC[C@H](NC(=O)[C@H](Cc2ccc3ccccc3c2)NC(=O)[C@H](CCCNC(=N)N)NC(=O)[C@@H](N)CCCNC(=N)N)C(=O)N[C@@H](Cc2ccc(O)cc2)C(=O)N[C@@H](CCCNC(=N)N)C(=O)N[C@@H](CCCCN)C(=O)N[C@H](CCCCN)C(=O)N2CCC[C@H]2C(=O)N[C@@H](Cc2ccc(O)cc2)C(=O)N[C@@H](CCCNC(=N)N)C(=O)N[C@@H](CCCNC(=N)N)C(=O)N1)C(=O)O` the value was 353 nM; for `CC(C)C[C@H](NC(=O)[C@H](CO)NC(=O)[C@@H](NC(=O)[C@@H]1CCCN1C(=O)[C@H](C)N)C(C)C)C(=O)N[C@@H](CO)C(=O)N[C@@H](Cc1ccc(O)cc1)C(=O)N[C@@H](CCCNC(=N)N)C(=O)N[C@@H](CO)C(=O)N[C@@H](C)C(=O)NCCCC[C@H](NC(=O)[C@@H]1CSSC[C@H](NC(=O)[C@H](Cc2ccc3ccccc3c2)NC(=O)[C@H](CCCNC(=N)N)NC(=O)[C@@H](N)CCCNC(=N)N)C(=O)N[C@@H](Cc2ccc(O)cc2)C(=O)N[C@@H](CCCNC(=N)N)C(=O)N[C@@H](CCCCN)C(=O)N[C@H](CCCCN)C(=O)N2CCC[C@H]2C(=O)N[C@@H](Cc2ccc(O)cc2)C(=O)N[C@@H](CCCNC(=N)N)C(=O)N[C@@H](CCCNC(=N)N)C(=O)N1)C(=O)O`, 282 nM. On the same count and under the same terms, in the case of `CCCC[C@H](N)C(=O)N1CCC[C@H]1C(=O)N[C@H](C(=O)N[C@@H](CO)C(=O)N[C@@H](CC(C)C)C(=O)N[C@@H](CO)C(=O)N[C@@H](Cc1ccc(O)cc1)C(=O)N[C@@H](CCCNC(=N)N)C(=O)N[C@@H](CO)C(=O)N[C@@H](C)C(=O)NCCCC[C@H](NC(=O)[C@@H]1CSSC[C@H](NC(=O)[C@H](Cc2ccc3ccccc3c2)NC(=O)[C@H](CCCNC(=N)N)NC(=O)[C@@H](N)CCCNC(=N)N)C(=O)N[C@@H](Cc2ccc(O)cc2)C(=O)N[C@@H](CCCNC(=N)N)C(=O)N[C@@H](CCCCN)C(=O)N[C@H](CCCCN)C(=O)N2CCC[C@H]2C(=O)N[C@@H](Cc2ccc(O)cc2)C(=O)NC(CCCNC(=N)N)C(=O)N[C@@H](CCCNC(=N)N)C(=O)N1)C(=O)O)C(C)C` (some centres not stated) it was 267 nM. Regarding `CC(C)C[C@H](NC(=O)[C@H](CO)NC(=O)[C@@H](NC(=O)[C@@H]1Cc2ccccc2CN1C(=O)[C@@H](N)CCCCN)C(C)C)C(=O)N[C@@H](CO)C(=O)N[C@@H](Cc1ccc(O)cc1)C(=O)N[C@@H](CCCNC(=N)N)C(=O)N[C@@H](CO)C(=O)N[C@@H](C)C(=O)NCCCC[C@H](NC(=O)[C@@H]1CSSC[C@H](NC(=O)[C@H](Cc2ccc3ccccc3c2)NC(=O)[C@H](CCCNC(=N)N)NC(=O)[C@@H](N)CCCNC(=N)N)C(=O)N[C@@H](Cc2ccc(O)cc2)C(=O)N[C@@H](CCCNC(=N)N)C(=O)N[C@@H](CCCCN)C(=O)N[C@H](CCCCN)C(=O)N2CCC[C@H]2C(=O)N[C@@H](Cc2ccc(O)cc2)C(=O)N[C@@H](CCCNC(=N)N)C(=O)N[C@@H](CCCNC(=N)N)C(=O)N1)C(=O)O`, the 50% inhibitory concentration (IC50) amounted to 222 nM.

The same experiment, now with this note: hek293.
In the case of `CC(C)C[C@H](NC(=O)[C@H](CO)NC(=O)[C@@H](NC(=O)[C@H]1CCCN1C(=O)[C@@H](N)CCCCN)C(C)C)C(=O)N[C@@H](CO)C(=O)N[C@@H](Cc1ccc(O)cc1)C(=O)N[C@@H](CCCNC(=N)N)C(=O)N[C@@H](CO)C(=O)N[C@@H](C)C(=O)NCCCC[C@H](NC(=O)[C@@H]1CSSC[C@H](NC(=O)[C@H](Cc2ccc3ccccc3c2)NC(=O)[C@H](CCCNC(=N)N)NC(=O)[C@@H](N)CCCNC(=N)N)C(=O)N[C@@H](Cc2ccc(O)cc2)C(=O)N[C@@H](CCCNC(=N)N)C(=O)N[C@@H](CCCCN)C(=O)N[C@H](CCCCN)C(=O)N2CCC[C@H]2C(=O)N[C@@H](Cc2ccc(O)cc2)C(=O)N[C@@H](CCCNC(=N)N)C(=O)N[C@@H](CCCNC(=N)N)C(=O)N1)C(=O)O`, the IC50 is 151 nM.
